This is an account of results in PubChem BioAssay (NCI).

Each structure is given as a SMILES string.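 Five compound concentrations were applied to cells in 96-well plates for 48 hours; endpoints were derived by simple linear interpolation of the resulting dose-response curve. Definition used: TGI = concentration required for complete inhibition of growth.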 Where a SMILES comes first, the peptide text is derived from it. Bridges are numbered along the chain shown (N, C = ends). The star is where a group is joined. Cbz = O=C(OCc1ccccc1)* Some results are limits rather than exact numbers.

Experiment in all cases: growth of human tumour cells (NCI), 48 h
For assay [1], the system named is A498 renal.
Assay [2] concerns RPMI-8226 leukemia.
For assay [3], the system named is SK-MEL-2 melanoma.
In assay [4] the test system is SNB-19 CNS.
The subject of assay [5] is SW-620 colon.
For assay [6], the system named is U251 CNS.
Assay [7] deals with UO-31 renal.

For the molecule `COc1ccc2c(-c3csc(-c4c[nH]c5ccc(Br)cc45)n3)c[nH]c2c1`, the TGI in assay [1], in assay [2], in assay [3], in assay [4], in assay [5] and in assay [6] was over 100 µM each time. The molecule also came in with a TGI in assay [7] of over 100 µM.

As for `C[N+]1(C)C2CC(OC(=O)C(CO)c3ccccc3)CC1C1OC12` (centres undefined), the TGI in assay [1], in assay [2], in assay [3], in assay [4], in assay [5] and in assay [6] was over 100 µM each time. This molecule also returned a TGI in assay [7] of over 100 µM.

In the case of `Fc1ccc(Nc2nc(Cl)c3[nH]cnc3n2)cc1Cl`, the TGI in assay [1], in assay [2], in assay [3], in assay [4], in assay [5] and in assay [6] was over 100 µM each time. Moreover, the TGI in assay [7] was found to be 33.5 µM.

For `COC(=O)C(=O)C(C(=O)C(=O)Nc1ccc(Cl)c(Cl)c1)c1nc2ccc(C(=O)c3ccccc3)cc2[nH]c1=O` (centres undefined), the TGI in assay [1], in assay [2], in assay [3], in assay [4], in assay [5] and in assay [6] was over 100 µM throughout. The TGI in assay [7] is over 100 µM.

Turning to `C=CCOC(=O)Cn1cnc2c(N)ncnc21`, the TGI in assay [1], in assay [2], in assay [3], in assay [4], in assay [5] and in assay [6] was over 100 µM each time. In assay [7], this molecule showed a TGI of over 100 µM.

As to `C#CCN(Cc1ccc2nc(-c3ccccc3)c(Cl)nc2c1)c1ccc(F)cc1`, the TGI in assay [1], in assay [2], in assay [3], in assay [4], in assay [5] and in assay [6] was over 100 µM throughout. This molecule registered a TGI in assay [7] of over 100 µM.

Turning to `COC(=O)C(Cc1ccccc1)NC(=O)CSc1nnc(COc2ccc(Cl)cc2)n1-c1ccccc1` (centres undefined), the TGI in assay [1] is 56.1 µM; in assay [2], 73.5 µM; in assay [3], 33.2 µM; in assay [4], over 100 µM; in assay [5], over 100 µM; in assay [6] it was 32.9 µM. In assay [7], this molecule displayed a TGI of 3.34 µM.

For the molecule `COC1=C(C(c2cc(OC)c(OC)c(OC)c2)c2cc3c(cc2OC)OCO3)C(=O)OC1` (centres undefined), the TGI in assay [1] was over 71.9 µM; in assay [2] it was over 100 µM; in assay [3], over 100 µM; in assay [4], over 95.6 µM; in assay [5], over 100 µM; in assay [6], over 96.7 µM. Moreover, the TGI in assay [7] is 54.9 µM.

As for `CC(C)(C)N(Cc1ccccc1)C(=O)/C=C\S(=O)c1ccccc1` (centres undefined), the TGI in assay [1] is 26.5 µM; in assay [2], 7.78 µM; in assay [3], 8.79 µM; in assay [4] it was 23.6 µM; in assay [5], 9.13 µM; in assay [6] it was 15.5 µM. In assay [7], this molecule came in with a TGI of 7.71 µM.

In the case of `CC(C)(C)C(=O)/C=C(\OB(F)F)C(C)(C)C`, the TGI in assay [1], in assay [2], in assay [3], in assay [4], in assay [5] and in assay [6] was over 100 µM each time. The TGI in assay [7] was over 100 µM.

Turning to `Cc1ccc(S(=O)(=O)NNC(=O)Nc2cccc(C(F)(F)F)c2)cc1`, the TGI in assay [1], in assay [2], in assay [3], in assay [4], in assay [5] and in assay [6] was over 100 µM in each case. The molecule also returned a TGI in assay [7] of over 100 µM.

On to `CC(C)[Si](OC12CCC(CC1O)CC2CO)(C(C)C)C(C)C` (centres undefined), for which the TGI was determined as 32 µM in assay [1]; 38.1 µM in assay [2]; 29.3 µM in assay [3]; 28.6 µM in assay [4]; 52.4 µM in assay [5]; 28 µM in assay [6]. Further, the TGI in assay [7] came out at 26.8 µM.

Regarding `Cc1ccc2c(c1C)C(=O)C1(C2)Cc2ccc3c(c2C1=O)CCC3` (centres undefined), the TGI in assay [1], in assay [2], in assay [3], in assay [4], in assay [5] and in assay [6] was over 100 µM in each case. This molecule also came in with a TGI in assay [7] of over 100 µM.

For `CCOC(=O)c1nc2ccccc2nc1Oc1cc(OC)cc(OC)c1`, the TGI in assay [1], in assay [2], in assay [3], in assay [4], in assay [5] and in assay [6] was over 100 µM in each case. Further, the TGI in assay [7] is over 100 µM.

Turning to `O=C1CSC(c2c[nH]c3ccccc23)N1c1cccc(Cl)c1` (centres undefined), the TGI in assay [1] was over 100 µM; in assay [2], 54.7 µM; in assay [3] it was 65.2 µM; in assay [4], over 100 µM; in assay [5] it was over 100 µM; in assay [6], over 100 µM. The molecule also came in with a TGI in assay [7] of over 100 µM.

On to `CNC(=O)C1CCCCNC(=O)CCC(NC(=O)OCc2ccccc2)C(=O)N1` (stereo not drawn) (Cbz-Glu-Lys-NHMe; lactam 1-2; configuration not given here), for which the TGI in assay [1], in assay [2], in assay [3], in assay [4], in assay [5] and in assay [6] was over 100 µM in each case. The TGI in assay [7] is over 100 µM.

Regarding `COC(=NC(C)C)NC(C)C`, the TGI in assay [1], in assay [2], in assay [3], in assay [4], in assay [5] and in assay [6] was over 100 µM in each case. In assay [7], this molecule showed a TGI of over 100 µM.

Consider `COc1cccc(OC)c1C1ON=C(c2ccccc2)N1C12CC3CC(CC(C3)C1)C2` (centres undefined), for which the TGI in assay [1], in assay [2], in assay [3], in assay [4], in assay [5] and in assay [6] was over 100 µM each time. This molecule also showed a TGI in assay [7] of over 100 µM.

With `CN(Cc1cnc2nc(N)nc(N)c2n1)c1ccc(C(=O)NCCCS(=O)(=O)O)cc1`, the TGI in assay [1], in assay [2], in assay [3], in assay [4], in assay [5] and in assay [6] was over 100 µM each time. This molecule showed a TGI in assay [7] of over 100 µM.

Consider `CC(CN1NC12CCCC2)N1NC12CCCC2` (centres undefined), for which the TGI in assay [1], in assay [2], in assay [3], in assay [4], in assay [5] and in assay [6] was over 100 µM each time. In assay [7], the TGI was over 100 µM.

`COC(=O)c1c(O)c(C#N)c2[nH]c3ccccc3n2c1=O`: the TGI in assay [1], in assay [2], in assay [3], in assay [4], in assay [5] and in assay [6] was over 100 µM in each case. This molecule also came in with a TGI in assay [7] of over 100 µM.

With `N#Cc1cc2c(cc1C#N)SCCSCCCSCCS2`, the TGI in assay [1] was over 92.1 µM; in assay [2], over 100 µM; in assay [3], 42.8 µM; in assay [4], 22.9 µM; in assay [5], over 100 µM; in assay [6] it was 28.2 µM. The molecule also gave a TGI in assay [7] of over 90.6 µM.

With `O=C1c2ccccc2-c2nnc3c(c21)Cc1ccccc1C3`, the TGI in assay [1], in assay [2], in assay [3], in assay [4], in assay [5] and in assay [6] was over 10 µM throughout. In assay [7], this molecule displayed a TGI of over 10 µM.

For the molecule `COc1cc2nc(-c3cccs3)nc(Nc3cccc([N+](=O)[O-])c3)c2cc1OC`, the TGI in assay [1] was over 100 µM; in assay [2] it was 98.3 µM; in assay [3] it was 39.8 µM; in assay [4] it was 33.6 µM; in assay [5], 50.7 µM; in assay [6], 32.4 µM. The molecule further yielded a TGI in assay [7] of 43.9 µM.

`C#CCOC(=O)C(N)CC(N)=O` (centres undefined): the TGI in assay [1], in assay [2], in assay [3], in assay [4], in assay [5] and in assay [6] was over 100 µM in each case. The molecule further gave a TGI in assay [7] of over 100 µM.

For the molecule `COc1ccc(/C=C/C(=O)c2cc(OC)cc(OC)c2)cc1`, the TGI came to 11.7 µM in assay [1]; 26.1 µM in assay [2]; 42.3 µM in assay [3]; 7.3 µM in assay [4]; 17.6 µM in assay [5]; 7.41 µM in assay [6]. The TGI in assay [7] worked out at 12.4 µM.

On to `O=C1c2ccccc2C(=O)N1/N=C1/SC(=Nc2ccccc2)C(=Nc2ccccc2)N1c1ccccc1`, for which the TGI in assay [1] is over 63.1 µM; in assay [2] it was over 79.1 µM; in assay [3] it was over 100 µM; in assay [4], over 100 µM; in assay [5], over 100 µM; in assay [6] it was over 100 µM. The TGI in assay [7] was over 100 µM.
